Reference: the supplement of paper PMC11451515

Experiments:
Test in all cases: AUC of viability dose-response curve (% viability x log10 dose units); higher = less sensitive
Details in all cases: 48 h
P12-Ichikawa = tested on: P12-Ichikawa
Outline: (§1)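 Library compounds in DMSO were applied for 48 h at 37°C at 11 threefold doses (47 μM to 0.79 nM) to medium-adapted leukemia cells in 1536-well plates holding 500 or 1000 cells/well. Luminescence from CellTiter-Glo One was normalised plate by plate against DMSO and cell-free wells. Area under the curve came from trapezoidal integration of a log-logistic fit, after scaling curves that rose above full viability and discarding those that failed quality control. The fit had four parameters and used log10 doses.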

SEM cells = tested on: SEM cells
Outline: as §1

NOMO1 = tested on: NOMO1
Outline: as §1

[1] = RPMI 5 mM glucose + 10% dialyzed FBS

Row | SMILES | AUC of viability dose-response curve (P12-Ichikawa; HPLM + 10% dialyzed FBS) | AUC of viability dose-response curve (P12-Ichikawa; RPMI 5 mM glucose + 10% FBS) | AUC of viability dose-response curve (P12-Ichikawa; [1]) | AUC of viability dose-response curve (SEM cells; HPLM + 10% dialyzed FBS) | AUC of viability dose-response curve (SEM cells; RPMI 5 mM glucose + 10% FBS) | AUC of viability dose-response curve (SEM cells; [1]) | AUC of viability dose-response curve (NOMO1; HPLM + 10% dialyzed FBS) | AUC of viability dose-response curve (NOMO1; RPMI 5 mM glucose + 10% FBS) | AUC of viability dose-response curve (NOMO1; [1])
1 | COc1cc2c(cc1OC)CN(CCc1ccc(NC(=O)c3cccc4c(=O)c5cccc(OC)c5[nH]c34)cc1)CC2 | 326 | 372 | 366 | 380 | 276 | 320 | 348 | 391 | 395
2 | Cc1nnc(C(C)C)n1[C@@H]1C[C@H]2CC[C@@H](C1)N2CC[C@H](NC(=O)C1CCC(F)(F)CC1)c1ccccc1 | 460 | 454 | 437 | 425 | 379 | 419 | 445 | 411 | 394
3 | COc1ccc(/C=C/C(=O)Nc2ccccc2C(=O)O)cc1OC | 453 | 458 | 450 | 446 | 438 | 448 | 434 | 455 | 463
4 | O=C1\C=C(OC2=C(C=CC=C12)C3=CC=CC4=C3SC5=C4C=CC=C5)\N6CCOCC6 | 471 | 456 | 469 | 446 | 425 | 432 | 474 | 464 | 467
5 | N#Cc1cc(NC(=O)Nc2nnc(-c3ccncc3)s2)ccc1-c1cn[nH]c1 | 463 | 452 | 465 | 451 | 462 | 467 | 473 | 476 | 461
6 | CCOc1cc(C(=O)Nc2ccc(Cl)c(-c3nc4ccccc4[nH]3)c2)cc(OCC)c1OCC | 431 | 418 | 387 | 378 | 392 | 371 | 475 | 410 | 431
7 | CCCCN1CCC(CNC(=O)c2c3n(c4ccccc24)CCCO3)CC1 | 461 | 459 | 465 | 431 | 474 | 462 | 474 | 467 | 470
8 | Clc1ccc(CCC(Cn2ccnc2)Sc2c(Cl)cccc2Cl)cc1 (stereo not drawn) | 450 | 444 | 404 | 366 | 422 | 408 | 449 | 402 | 432
9 | CC(C)[C@H](C(=O)Nc1ccc(C(=O)NO)cc1)c1ccccc1 | 351 | 346 | 350 | 340 | 346 | 342 | 361 | 368 | 364
10 | Cc1nc2ccc(CN(C)c3ccc(C(=O)N[C@@H](CCC(=O)O)C(=O)O)s3)cc2c(=O)[nH]1 | 287 | 331 | 321 | 298 | 432 | 295 | 315 | 413 | 305
11 | CN(C)C(=O)[C@H](O)[C@H](Cc1ccccc1)NC(=O)c1cc2cc(Cl)ccc2[nH]1 | 448 | 442 | 456 | 359 | 340 | 359 | 418 | 456 | 435
12 | CCOc1ccccc1N/N=C1/C(=O)N(c2nc(-c3ccccc3)cs2)N=C1C | 444 | 467 | 450 | 368 | 371 | 358 | 428 | 447 | 419
13 | OC1=C(Cl)C=C(N\C2=C(\C(=O)NC2=O)C3=C(C=CC=C3)[N+]([O-])=O)C=C1 | 457 | 456 | 459 | 419 | 426 | 434 | 400 | 431 | 427
14 | C[C@H](NC(=O)[C@@H](O)c1cc(F)cc(F)c1)C(=O)N[C@@H]1C(=O)N(C)c2ccccc2-c2ccccc21 | 432 | 441 | 437 | 440 | 453 | 417 | 402 | 450 | 432
15 | CC[C@H](C)C(=O)O[C@H]1C[C@@H](C)\C=C2\C=C/[C@H](C)[C@H](CC[C@@H]3C[C@@H](O)CC(=O)O3)[C@@H]12 | 415 | 373 | 379 | 384 | 386 | 408 | 437 | 411 | 411
16 | CN1CCN(CC1)C2=CC3=C([NH]C(=N3)C/4=C(\N)C5=C(F)C=CC=C5NC4=O)C=C2 | 420 | 395 | 399 | 161 | 178 | 152 | 418 | 440 | 433
17 | COc1cc(N2CCN(C)CC2)ccc1Nc1nc(N)c(C(=O)c2c(Cl)cccc2Cl)s1 | 457 | 454 | 456 | 425 | 422 | 444 | 456 | 467 | 467
